Measured values: US20240262844A1, “PYRIDINIUM SALTS AND METHODS OF USE” (UNIVERSITY OF WYOMING, priority 2023, published 2024)
Several values for one entry are separate records, joined by “and”; a condition that tells them apart may be missing. Identical values can stand only once. Counter-ions that a name gives are not always drawn.

Tests used:
[1] = Fluorescence lifetime and emission measurements; type: physicochemical
Experimental: The emission spectra were generated by excitation of a 10 μM solution of either pyridinium salt 2a or pyridinium salt 2b in H2O. Analyses were performed at 375 nm excitation with an emission slit width of 5 nm and an excitation slit width of 5 nm. The emission wavelength was gathered from 400 nm to 600 nm.
FIGS. 9A-9D show fluorescence decay spectra of pyridinium salts 2a and 2b in selected solvents according to at least one embodiment of the present disclosure. Specifically, FIG. 9A is a fluorescence decay spectrum of pyridinium salt 2a in 1,2-dichloroethane, FIG. 9B is a fluorescence decay spectrum of pyridinium salt 2a in CH3CN, FIG. 9C is a fluorescence decay spectrum of pyridinium salt 2a in H2O, and FIG. 9D is a fluorescence decay spectrum of pyridinium salt 2b in H2O. The fluorescent decay spectra were generated with a 1-10 μM solution of pyridinium salt (10 μM for H2O and 1 μM for other solvents) using a GG420 long pass filter and a 375 nm excitation wavelength. The instrument response factor was measured using a highly diluted solution of LUDOX AS-30 colloidal silica in water and a ND1.0 filter. The concentration of LUDOX and the emission slit width were adjusted until the intensity of the instrument response function (IRF) was similar to the fluorescent decay intensity. The procedure given in the EasyLife X User's Manual was followed.

[2] = target: T1, lysozyme (14.3 kDa) (Gallus gallus, UniProt P00698); experiment: Photochemical labeling of lysozyme (LC/MS); type: biochemical, chicken; details: for irradiation time to complete reactivity: lysozyme labeling
T1 construct: Lysozyme (from chicken egg white, >40,000 units/mg of protein); purchased Sigma Aldrich; host or cells: chicken egg white
Experimental: General Procedure B: Photochemical Irradiation of Peptides and Proteins: To a 2 mL Pyrex LC/MS vial (Thermo model #03-391-39) were sequentially added solutions containing the desired biomolecule, glutathione (GSH), pyridinium salt, and ammonium acetate (NH4OAc). The resulting solution was diluted to a final volume of 500 μL and then sparged using nitrogen for a minimum of 30 minutes prior to irradiation. The actively sparging solution was then placed in an EvoluChem™ PhotoRedOx Box photoreactor that was equipped with a Kessil, PR160 427 nm LED Lamp and was then irradiated (100% lamp intensity) for the designated time at room temperature while maintaining active sparging. The resultant reaction mixture was then analyzed directly by LC/MS. Analysis of labeling outcomes using LC/MS was performed either by extracted ion chromatogram intensities (method A) or by integrating the area under the peaks associated with peptide content (method B). These values were totaled, and estimated percentages were assigned according to relative intensities of peaks or ion counts.
Labeling of Lysozyme with Pyridinium Salt 2a (Lysozyme-2a Conjugate). Labeling of lysozyme (14.3 kDa) with the pyridinium salt 2a was performed by following general procedure B using the following solutions: lysozyme (27 μL, 182 μM, 10 μM final concentration), pyridinium salt 2a (200 μL, 500 μM, 200 μM final concentration), NH4+OAc (100 μL, 100 mM, pH=6.9, 20 mM final concentration), glutathione (15 μL, 10 mM, 300 μM final concentration), and water (158 μL) with a 100% intensity irradiation time of 60 minutes. The reaction mixture was analyzed directly by LC/MS using method A and was estimated to have proceeded in >95% conversion and a 10.9:1 mono:di labeled ratio and 10% glutathionylation of all unlabeled and labeled protein content was observed.
Labeling of Lysozyme with Pyridinium Salt 2b (Lysozyme-2b Conjugate). Labeling of lysozyme (14.3 kDa) with the pyridinium salt 2b was performed by following general procedure B using the following solutions: lysozyme (19 μL, 262 μM, 10 μM final concentration), 2b (181 μL, 554 μM, 200 μM final concentration), NH4OAc (50 μL, 200 mM, pH=6.9, 20 mM final concentration), glutathione (50 μL, 3 mM, 300 μM final concentration), and water (200 μL) with a 100% intensity irradiation time of 10 minutes. The reaction mixture was analyzed directly by LC/MS using method A and was estimated to have proceeded with 83% conversion. Partial oxidation at biotin obfuscated estimation of both oxidation and glutathionylation. Lysozyme-2b conjugate (retention time (Tr)=2.80-5.17 min).
Labeling of Lysozyme with Pyridinium Salt 2c (Lysozyme-2c Conjugate). Labeling of lysozyme (14.3 kDa) with the pyridinium salt 2c was performed by following general procedure B using the following solutions: lysozyme (19 μL, 262 μM, 10 μM final concentration), pyridinium salt 2c(367 μL, 680 μM, 500 μM final concentration), NH4OAc (50 μL, 200 mM, pH=6.9, 20 mM final concentration), glutathione (50 μL, 3 mM, 300 μM final concentration), and water (14 μL) with a 100% intensity irradiation time of 10 minutes. The reaction mixture was analyzed directly by LC/MS using method A and was estimated to have proceeded with 85% conversion and a 3.7:1 mono:di labeled ratio and 10% glutathionylation of all protein content was observed. Lysozyme-2c conjugate (retention time (Tr)=3.11-5.07 min).
Labeling of Lysozyme with Pyridinium Salt 2d (Lysozyme-2d Conjugate). Labeling of lysozyme (14.3 kDa) with the pyridinium salt 2d was performed by following general procedure B using the following solutions: Lysozyme (16.8 μL, 0.297 mM solution in H2O, final concentration […]), pyridinium salt 2d (91.8 μL, 1.09 mM solution in CH3CN/H2O (2:3), final concentration 200 μM), NH4OAc (50 μL, 200 mM in H2O, final concentration 20 mM, pH 6.9), glutathione (15 μL, 10 mMsolution in H2O, final concentration 300 μM), and water (326.4 μL) with a 100% intensity irradiation time of 20 minutes. […]

T1 sequence (P00698 19-147): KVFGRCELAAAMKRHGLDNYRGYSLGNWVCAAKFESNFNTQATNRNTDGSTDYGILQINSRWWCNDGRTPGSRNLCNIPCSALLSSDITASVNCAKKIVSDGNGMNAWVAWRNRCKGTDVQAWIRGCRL

SMILES | fluorescence lifetime τ1 ([1]; 1,2-dichloroethane, 375 nm excitation) [ns] | fluorescence lifetime τ1 ([1]; acetonitrile, 375 nm excitation) [ns] | diffusion distance of the excited state (2a*) ([1]; aqueous systems) [Å] | fluorescence lifetime τ1 ([1]; water, 375 nm excitation) | fluorescence lifetime τ2 ([1]; water, 375 nm excitation) | conversion ([2]; 10 μM lysozyme, 200 μM pyridinium salt 2a, 300 μM glutathione, 20 mM NH4OAc pH 6.9, 427 nm, 60 minutes) | glutathionylation of all unlabeled and labeled protein content ([2]; 200 μM pyridinium salt 2a, 300 μM glutathione, 60 minutes irradiation) [%] | irradiation time to complete reactivity [2] | relative fluorescence quantum yield (ΦF1) pyridinium salt 2b: pyridinium salt 2a ([1]; 10 μM in H2O, 375 nm excitation) | glutathionylation of all unlabeled and labeled protein content ([2]; 200 μM pyridinium salt 2d, 300 μM glutathione, 20 minutes irradiation)
COC(=O)N(C)[n+]1c(C)cc(-c2ccc3cc(OC)ccc3c2)cc1C [Pyridinium salt 2a, 1-((methoxycarbonyl)(methyl)amino)-4-(6-methoxynapthalen-2-yl)-2,6-dimethylpyridin-1-ium tetrafluoroborate] | 4.1 | 3.3 | ≤ 30 | 0.2548 ns and 0.3 ns | 3.399 ns and 3.4 ns | > 95% and 94% | 10 | about 60 min | – | –
COc1ccc2cc(-c3cc(C)[n+](N(C)C(=O)OCCCCC[C@H]4SC[C@H]5NC(=O)N[C@H]54)c(C)c3)ccc2c1 (stereo in doubt) [Pyridinium salt 2b, 4-(6-methoxynaphthalen-2-yl)-2,6-dimethyl-1-(methyl(((5-((3aR,4R,6aS)-2-oxohexahydro-1H-thieno[3,4-d]imidazol-4-yl)pentyl)oxy)carbonyl)amino)pyridin-1-ium tetrafluoroborate] | – | – | – | 0.5 ns | 2.8 ns | – | – | less than 10 min | 3.3 | –
COc1ccc2cc(-c3cc(C)[n+](N(C)C(=O)OCCCCCCN=[N+]=[N-])c(C)c3)ccc2c1 [Pyridinium salt 2d, 1-((((6-azidohexyl)oxy)carbonyl)(methyl)amino)-4-(6-methoxynaphthalen-2-yl)-2,6-dimethylpyridin-1-ium tetrafluoroborate] | – | – | – | – | – | – | – | – | – | 3% and 2%
